# Results published in PubChem BioAssay (NCI).
#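 Test compounds were applied to cells in 96-well plates for 48 hours at 5 doses. TGI marks complete inhibition of growth.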
# What was measured:
# Experiment in all cases: NCI tumour cell line growth inhibition, 48 h
# [1] = system: HL-60(TB) leukemia
# [2] = system: HCT-15 colon
# [3] = system: OVCAR-3 ovarian
# [4] = system: COLO 205 colon
# [5] = system: A498 renal
# [6] = system: HOP-62 NSCLC
# [7] = system: SK-OV-3 ovarian
# [8] = system: NCI-H23 lung
# [9] = system: SNB-75 CNS
# [10] = system: LOX IMVI melanoma
# [11] = system: SNB-78 CNS
# [12] = system: HT29 colon
# [13] = system: SF-295 CNS
# [14] = system: SK-MEL-28 melanoma
# [15] = system: U251 CNS
# [16] = system: CCRF-CEM leukemia
# [17] = system: M14 melanoma
# [18] = system: TK-10 renal
# [19] = system: DU-145 prostate
# [20] = system: SR leukemia
SMILES,TGI [1],TGI [2],TGI [3],TGI [4],TGI [5],TGI [6],TGI [7],TGI [8],TGI [9],TGI [10],TGI [11],TGI [12],TGI [13],TGI [14],TGI [15],TGI [16],TGI [17],TGI [18],TGI [19],TGI [20]
COc1cc(N=Nc2cccc(S(=O)(=O)O)c2)ccc1N=Nc1ccc(/C=C/c2ccc(-n3on3-c3ccc(/C=C/c4ccc(N=Nc5ccc(N=Nc6cccc(S(=O)(=O)O)c6)cc5OC)cc4S(=O)(=O)O)c(S(=O)(=O)O)c3)cc2S(=O)(=O)O)c(S(=O)(=O)O)c1,> 100 µM,> 100 µM,> 100 µM,> 100 µM,> 100 µM,> 100 µM,> 100 µM,> 100 µM,> 100 µM,> 100 µM,> 100 µM,> 100 µM,> 100 µM,> 100 µM,> 100 µM,> 100 µM,,,,
N#CC(OC1OC(COC2OC(CO)C(O)C(O)C2O)C(O)C(O)C1O)c1ccccc1 (stereo unspecified),> 225 µM,> 225 µM,> 225 µM,> 225 µM,> 225 µM,> 225 µM,> 225 µM,> 225 µM,> 225 µM,> 225 µM,> 225 µM,> 225 µM,> 225 µM,> 225 µM,> 225 µM,> 225 µM,,,,
CCC(C)C1NC(=O)C(NC(=O)c2c3[nH]c4c(C(=O)NC5C(=O)NC(C(C)CC)C(=O)N6CCCC6C(=O)N(C)CC(=O)N(C)C(C(C)C)C(=O)OC5C)ccc(C)c4oc-3c(C)c(=O)c2=O)C(C)OC(=O)C(C(C)C)N(C)C(=O)CN(C)C(=O)C2CCCN2C1=O (stereo unspecified),52.2 µM,> 100 µM,62.9 µM,13.4 µM,39.4 µM,> 100 µM,> 100 µM,45.3 µM,32.9 µM,> 53.4 µM,,29.2 µM,> 93 µM,76.3 µM,> 100 µM,9.81 µM,40.5 µM,98.4 µM,> 78 µM,4 µM
C=CC1C(OC2OC(CO)C(O)C(O)C2O)OC=C(C(=O)OC)C1CC1CC(=O)CC(CCc2ccc(O)cc2)O1 (stereo unspecified),> 100 µM,> 100 µM,> 100 µM,> 100 µM,> 100 µM,> 100 µM,> 100 µM,> 100 µM,> 100 µM,> 100 µM,,> 100 µM,> 100 µM,> 100 µM,> 100 µM,> 100 µM,> 100 µM,> 100 µM,> 100 µM,> 100 µM
O=C1NP23(OCCO2)Oc2ccccc2C3(C(F)(F)F)O1 (stereo unspecified),> 100 µM,> 100 µM,> 100 µM,,,,> 100 µM,> 100 µM,> 100 µM,> 100 µM,> 100 µM,> 100 µM,> 100 µM,> 100 µM,> 100 µM,> 100 µM,> 100 µM,> 100 µM,,
O=C(O)C1C2C=CC(C2)C1c1ccccc1 (stereo unspecified),> 100 µM,> 100 µM,> 100 µM,> 100 µM,> 100 µM,> 100 µM,> 100 µM,> 100 µM,> 100 µM,> 100 µM,,> 100 µM,> 100 µM,> 100 µM,> 100 µM,> 100 µM,> 100 µM,> 100 µM,> 100 µM,> 100 µM
CCOP(=O)(COCCn1ncc(=O)[nH]c1=O)OCC,> 100 µM,> 100 µM,> 100 µM,> 100 µM,> 100 µM,> 100 µM,,> 100 µM,> 100 µM,> 100 µM,,> 100 µM,,> 100 µM,> 100 µM,> 100 µM,> 100 µM,> 100 µM,> 100 µM,> 100 µM
